Experimental data from patent publication US20140011853A1, “SUBSTITUTED 3-(BIPHENYL-3-YL)-8,8-DIFLUORO-4-HYDROXY-1-AZASPIRO[4.5]DEC-3-EN-2-ONES FOR THERAPY” (BAYER INTELLECTUAL PROPERTY GMBH, priority 2011, published 2014).
pIC50, pKd: −log10 of the molar value. Several values for one entry are separate records, joined by “and”; a condition that tells them apart may be missing. Identical values can stand only once. Like-named read-outs stand apart in the source and are kept apart here.

Key:
[1] = reference substances with known distribution coefficients; cited from earlier work
Meloidogyne incognita = Meloidogyne incognita test (MELGIN); type: in vivo; settings: 20 ppm, after 14 days
Procedure: • Solvent: 125 parts by weight of acetone
Containers are filled with sand, solution of active compound, Meloidogyne incognita egg/larvae suspension and lettuce seeds. The lettuce seeds germinate and the plants develop. On the roots, galls are formed. After 14 days, the nematicidal effect in % is determined by the formation of galls. 100% means that no galls have been found; 0% means that the number of galls on the treated plants corresponds to the untreated control.

Tetranychus urticae = assay: Tetranychus test, OP-resistant (TETRUR spray treatment); type: in vivo
human ACC2 = human ACC2 (Homo sapiens, UniProt O00763); assay: Human ACC2 enzyme assay (ADP-Glo); settings: ACC 2 IC50, individual measurements
Chain of human ACC2 (O00763 27-2458 limits assumed): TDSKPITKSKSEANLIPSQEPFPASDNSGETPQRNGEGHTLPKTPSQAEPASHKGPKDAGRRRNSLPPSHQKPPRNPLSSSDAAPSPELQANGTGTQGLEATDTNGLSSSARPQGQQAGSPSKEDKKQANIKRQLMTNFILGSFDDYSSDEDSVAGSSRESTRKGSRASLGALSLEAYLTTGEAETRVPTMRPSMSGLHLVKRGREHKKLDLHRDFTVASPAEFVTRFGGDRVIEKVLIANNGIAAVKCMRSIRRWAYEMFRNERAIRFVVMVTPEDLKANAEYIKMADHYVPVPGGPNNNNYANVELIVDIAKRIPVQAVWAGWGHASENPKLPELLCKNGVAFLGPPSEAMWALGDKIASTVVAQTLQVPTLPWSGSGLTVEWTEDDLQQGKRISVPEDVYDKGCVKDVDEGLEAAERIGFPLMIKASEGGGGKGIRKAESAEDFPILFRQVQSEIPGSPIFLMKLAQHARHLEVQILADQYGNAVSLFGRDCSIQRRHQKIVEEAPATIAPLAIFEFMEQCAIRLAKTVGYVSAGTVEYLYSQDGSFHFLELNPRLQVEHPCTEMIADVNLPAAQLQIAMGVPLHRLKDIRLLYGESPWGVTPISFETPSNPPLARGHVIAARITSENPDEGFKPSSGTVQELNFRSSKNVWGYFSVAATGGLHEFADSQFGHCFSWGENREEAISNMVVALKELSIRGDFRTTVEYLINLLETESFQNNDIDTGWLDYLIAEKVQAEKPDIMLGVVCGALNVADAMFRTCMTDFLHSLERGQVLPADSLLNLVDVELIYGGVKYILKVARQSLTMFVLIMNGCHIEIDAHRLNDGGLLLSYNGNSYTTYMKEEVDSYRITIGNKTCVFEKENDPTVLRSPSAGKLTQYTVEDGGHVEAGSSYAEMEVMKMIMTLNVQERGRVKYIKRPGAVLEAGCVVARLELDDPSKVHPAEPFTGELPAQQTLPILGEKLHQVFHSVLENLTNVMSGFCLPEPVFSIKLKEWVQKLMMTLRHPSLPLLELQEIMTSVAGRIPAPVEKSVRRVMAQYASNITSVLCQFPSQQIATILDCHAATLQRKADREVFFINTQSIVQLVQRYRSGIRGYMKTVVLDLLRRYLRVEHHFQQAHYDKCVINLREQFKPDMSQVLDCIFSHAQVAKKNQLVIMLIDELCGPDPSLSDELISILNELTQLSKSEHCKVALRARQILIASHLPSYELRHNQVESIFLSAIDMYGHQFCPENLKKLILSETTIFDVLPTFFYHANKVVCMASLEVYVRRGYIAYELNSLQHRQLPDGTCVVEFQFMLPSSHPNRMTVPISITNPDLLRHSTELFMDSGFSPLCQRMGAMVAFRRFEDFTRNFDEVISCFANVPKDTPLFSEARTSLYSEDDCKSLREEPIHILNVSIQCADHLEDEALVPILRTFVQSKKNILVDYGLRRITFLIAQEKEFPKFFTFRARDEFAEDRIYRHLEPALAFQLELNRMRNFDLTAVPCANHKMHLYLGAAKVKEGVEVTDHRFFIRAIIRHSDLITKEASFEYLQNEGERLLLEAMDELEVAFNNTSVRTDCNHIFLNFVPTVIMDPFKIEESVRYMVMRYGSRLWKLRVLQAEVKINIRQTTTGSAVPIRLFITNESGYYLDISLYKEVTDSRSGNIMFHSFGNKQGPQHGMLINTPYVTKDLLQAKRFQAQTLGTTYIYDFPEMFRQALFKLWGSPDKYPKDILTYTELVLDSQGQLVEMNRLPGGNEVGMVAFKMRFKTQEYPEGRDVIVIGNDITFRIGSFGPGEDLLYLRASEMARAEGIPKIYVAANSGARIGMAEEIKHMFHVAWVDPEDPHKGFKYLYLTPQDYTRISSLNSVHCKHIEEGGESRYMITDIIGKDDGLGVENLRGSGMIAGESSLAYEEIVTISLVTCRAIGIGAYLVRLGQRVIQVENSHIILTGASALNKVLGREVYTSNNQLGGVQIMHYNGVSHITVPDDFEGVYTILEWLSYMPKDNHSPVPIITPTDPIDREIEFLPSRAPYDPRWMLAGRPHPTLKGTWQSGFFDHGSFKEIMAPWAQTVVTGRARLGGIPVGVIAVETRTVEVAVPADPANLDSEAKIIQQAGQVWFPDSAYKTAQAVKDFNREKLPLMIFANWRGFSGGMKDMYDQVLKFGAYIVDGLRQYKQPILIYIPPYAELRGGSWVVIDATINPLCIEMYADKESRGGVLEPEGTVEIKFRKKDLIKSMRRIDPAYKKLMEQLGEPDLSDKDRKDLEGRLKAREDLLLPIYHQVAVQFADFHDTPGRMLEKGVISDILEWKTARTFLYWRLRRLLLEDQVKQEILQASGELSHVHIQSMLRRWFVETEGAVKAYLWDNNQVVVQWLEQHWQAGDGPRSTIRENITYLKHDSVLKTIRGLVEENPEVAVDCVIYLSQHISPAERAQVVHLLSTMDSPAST

Myzus persicae = assay: Myzus test (MYZUPE spray treatment); type: in vivo
Description: Disks of Chinese cabbage (Brassica pekinensis) infested by all stages of the green peach aphid (Myzus persicae) are sprayed with an active compound formulation of the desired concentration.

KM12 = assay: Tumour cell proliferation, CellTiter-Glo, 96-hour incubation, KM12; type: cell-based
Procedure: (§1) In accordance with the invention, the substances were tested in cell-based assays for the ability of the substances of inhibiting tumour cell proliferation after a 96-hour incubation with the substance. Cell viability was tested using the CellTiter-Glo® luminescent cell viability assay (Promega). The cells were sown at a density of 2000-5000 cells/well (depending on the cell line) in 100 μl growth medium on 96-well microtiter plates. For each cell line examined, cells were sown on a separate plate to determine the luminescence at t=0 hours and t=96 hours. After overnight incubation at 37° C., the luminescence values for the t=0 samples were determined. The dose plates for the t=96 hours points in time were treated with substances diluted with growth medium. The cells were then incubated at 37° C. for 96 hours, and the luminescence values for the t=96 hours samples were then determined. For data analysis, the t=0 values were subtracted from the t=96 hours values for treated and untreated samples. The differences in luminescence in percent between substance-treated samples and control values were used to determine the growth inhibition in percent.
(§2) The substances were tested in the following cell lines which represent the stated indications in an exemplary manner: […]

H460 = assay: Tumour cell proliferation, CellTiter-Glo, 96-hour incubation, H460; type: cell-based
Procedure: as §1, §2

PC3 = assay: Tumour cell proliferation, CellTiter-Glo, 96-hour incubation, PC3; type: cell-based
Procedure: as §1, §2

MCF7 = assay: Tumour cell proliferation, CellTiter-Glo, 96-hour incubation, MCF7; type: cell-based
Procedure: as §1, §2

human ACC1 [2] = assay: Human ACC1 enzyme assay (ADP-Glo); type: biochemical; settings: for Ratio of IC50s ACC2/ACC1 (respective measurement): pairwise, same dilution series
human ACC1 [3] = biological target: T1, human ACC1 (Homo sapiens, UniProt Q13085); assay: Human ACC1 enzyme assay (ADP-Glo); type: biochemical
T1 construct: FLAG (C); made in house; host or cells: baculovirus-infected insect cells (Hi5)

Lucilia cuprina = Lucilia cuprina test (LUCICU); type: in vivo; settings: 100 ppm, after 2 days
Description: (§3) • Solvent: dimethyl sulphoxide
Vessels containing horse meat treated with the active compound preparation of the desired concentration are populated with about 20 Lucilia cuprina larvae.

Phaedon cochleariae = assay: Phaedon test (PHAECO spray treatment); settings: 500 g/ha, after 7 days
Spodoptera frugiperda = Spodoptera frugiperda test (SPODFR spray treatment); type: in vivo; settings: 500 g/ha, after 7 days
Boophilus microplus = Boophilus microplus test (BOOPMI injection); type: in vivo; settings: 20 μg/animal, after 7 days
Procedure: as §3
The solution of active compound is injected into the abdomen (Boophilus microplus), and the animals are transferred into dishes and kept in a climatized room. The activity is assessed by […] of fertile eggs.

[4] = biological target: human serum albumin (HSA) (Homo sapiens, UniProt P02768); assay: Protein binding to human serum albumin (HSA-Transil)
Chain of human serum albumin (HSA) (P02768 25-609): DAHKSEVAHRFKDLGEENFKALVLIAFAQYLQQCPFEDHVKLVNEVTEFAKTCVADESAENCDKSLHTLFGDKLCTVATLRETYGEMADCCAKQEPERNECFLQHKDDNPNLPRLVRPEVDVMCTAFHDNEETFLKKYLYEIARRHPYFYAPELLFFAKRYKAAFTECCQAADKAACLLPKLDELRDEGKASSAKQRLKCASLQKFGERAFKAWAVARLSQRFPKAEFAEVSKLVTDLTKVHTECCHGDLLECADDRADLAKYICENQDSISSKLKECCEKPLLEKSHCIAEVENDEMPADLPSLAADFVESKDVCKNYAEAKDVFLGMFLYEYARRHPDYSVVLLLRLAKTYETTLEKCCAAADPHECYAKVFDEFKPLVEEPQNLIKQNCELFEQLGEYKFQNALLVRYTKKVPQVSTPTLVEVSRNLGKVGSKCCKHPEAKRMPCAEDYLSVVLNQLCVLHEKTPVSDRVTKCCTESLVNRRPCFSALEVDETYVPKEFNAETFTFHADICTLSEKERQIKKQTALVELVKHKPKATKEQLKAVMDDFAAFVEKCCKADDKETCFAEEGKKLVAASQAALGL

[5] = Membrane affinity logMA (MA-Transil); type: physicochemical; settings: buffer pH 7.4
[6] = Plasma protein binding by equilibrium dialysis, rat; type: in vitro ADME; settings: read-out: fu (rat)
Procedure: (§4) The binding of test substances to plasma proteins is determined by equilibrium dialysis by means of the Ht-dialysis apparatus (96-well) made of Teflon and a semipermeable membrane (regenerated cellulose, MWCO 12-14K). This separates 150 μl each of a plasma side and a buffer side (50 mM phosphate buffer). The test substance is added in 2 concentrations (usually 3 and 0.3 μM) to the plasma side and binds to plasma proteins. The unbound fraction of the test substance passes through the membrane and is distributed on either side until equilibrium is established (after approx. 6-8 h at 37° C.). The substance concentration on the buffer side and the plasma side is determined by LC-MS analysis. For this, both sides are brought by dilution with buffer or plasma to the same matrix (10% plasma) and then precipitated with methanol. The free (unbound) fraction (fu) is calculated from the quotient of the buffer and plasma concentration. Stability tests and recovery tests are run concurrently as controls. In addition, the substance in buffer is dialysed against buffer, to check the nonspecific binding to apparatus and membrane and establishment of equilibrium. Because during incubation the osmotic pressure of the plasma proteins leads to dilution of the plasma (volume shift), this possible error is determined by weighing blank plasma samples and is included in the calculation of fu. Establishment of equilibrium and plasma stability should have a value not lower than 80% and the recovery should be at least 30%. A free fraction of <1% is regarded as high, between 1 and 10% as moderate and >10% as low plasma protein binding.

[7] = Octanol/water distribution coefficient (logP/D), isocratic HPLC method; type: physicochemical; settings: pH 7.4
Description: Assay for Determining the Octanol/Water Distribution Coefficient (logP/D):
The distribution coefficient octanol/water P or D is a key parameter for estimating membrane penetration and permeability. It is defined as the ratio of the equilibrium concentrations of a substance in the two-phase system octanol/water.
It is usually stated in form of the decadic logarithm (logP or logD).
logP describes the distribution behaviour of a substance exclusively present in its neutral form. logD describes the distribution behaviour of a substance at a certain pH; depending on the ionization constant pKa of the substance, some of the substance may be present in ionic form, and some in neutral form.
The logP/D of the active compounds was determined using an isocratic HPLC method (HPLC=high performance liquid chromatography) (literature: OECD Guideline for Testing of Chemicals No. 117). The method is based on the correlation of the HPLC retention time of the test substance to that of reference substances with known distribution coefficients.
The test substance was employed as a 10 mM solution in DMSO (DMSO=dimethyl sulphoxide). 10 μl of this solution were made up to 100 μl with a methanol/water mixture in a ratio of 7+3.
The nine reference substances were dissolved individually in methanol. 100 μl each of the stock solutions were added to an HPLC vial and mixed with 300 μl of water.
A formamide solution was used to determine the hold-up time. To this end, 7 mg of formamide were dissolved in 10 ml of methanol. 100 μl of this stock solution were mixed with 500 μl of methanol and 200 μl of water.
All solutions were chromatographed using a flow rate of 1.00 ml/min.
Injection Protocol: formamide, references, test substance 1, test substance 2, . . . , formamide, references.
Evaluation of the retention times was carried out in a diode array detector (DAD) at 200-400 nm Via the molecular mass, the identity of the test substance was checked using the downstream mass spectrometer.
The HPLC run was evaluated using the Waters software Masslynx 4.1.
The logP/D values were calculated using the software “POW Determination” (proprietary development).

[8] = Plasma protein binding by equilibrium dialysis, human; type: in vitro ADME; settings: read-out: fu (human)
Procedure: as §4

[9] = Plasma protein binding by equilibrium dialysis, mouse; type: in vitro ADME; settings: read-out: fu (mouse)
Procedure: as §4

plasma proteins = assay: as above; type: in vitro ADME
Procedure: as §4

[10] = Homo sapiens, MCF7, 96 h, read-out: MCF7 IC50
[11] = ACC 1 IC50, individual measurements
[12] = Homo sapiens, MCF7, 96 h; read-out: MCF7 IC50

Compound	nematicidal effect (formation of galls) (Meloidogyne incognita) [%]	pIC50 (human ACC2)	pIC50 (MCF7; [10])	Selectivity ACC1 vs. ACC2 (mean of the individual measurements ± standard deviation) (human ACC1 [2])	Ratio of IC50s ACC2/ACC1 (respective measurement) (human ACC1 [2])	pIC50 (human ACC1 [3]; [11])	pKd [4]	logMA [5]	fraction unbound [6]	chromatographic logP [7]	fraction unbound [8]	fraction unbound [9]	pIC50 (MCF7; [12])	other results
Clc1ccc(C(c2ccc(Cl)cc2)C(Cl)(Cl)Cl)cc1 [DDT]														log P [1]: 6.2
Cc1ccc(-c2ccc(Cl)cc2)c(C)c1C1=C(O)C2(CCC(F)(F)CC2)NC1=O [Example 1-5, 3-(4′-Chloro-2,4-dimethylbiphenyl-3-yl)-8,8-difluoro-4-hydroxy-1-azaspiro[4.5]dec-3-en-2-one]	100	5.57	6.69	12.4	12.4	6.66								pest or weed control at 100 g/ha (Tetranychus urticae; Tetranychus urticae, 144 h, read-out: effect (kill of spider mites)): 90%; melting point: 141 to 145 °C; pest or weed control at 500 g/ha (Myzus persicae; Myzus persicae, 144 h, read-out: effect (kill of aphids)): 100%; pIC50 (KM12; Homo sapiens, KM12, 96 h, read-out: KM12 IC50): 6.18; pIC50 (H460; Homo sapiens, NCI-H460, 96 h, read-out: H460 IC50): 6.11; pIC50 (PC3; Homo sapiens, PC-3, 96 h, read-out: PC3 IC50): 6.30
Cc1ccc(-c2ccc(F)cc2)c(C)c1C1=C(O)C2(CCC(F)(F)CC2)NC1=O [Example I-1-a-2]	100													kill of larvae (Lucilia cuprina): 100%; effect (kill of spider mites) (Tetranychus urticae; 500 g/ha, after 6 days): 100%; effect (kill of beetle larvae) (Phaedon cochleariae): 100%; effect (kill of aphids) (Myzus persicae; 500 g/ha, after 6 days): 100%; effect (kill of caterpillars) (Spodoptera frugiperda): 100%; effect (no fertile eggs) (Boophilus microplus): 80%
Cc1ccc(-c2ccc(Cl)c(F)c2)cc1C1=C(O)C2(CCCCC2)NC1=O [V.1-b, 3-(4′-Chloro-3′-fluoro-4-methylbiphenyl-3-yl)-4-hydroxy-1-azaspiro[4.5]dec-3-en-2-one, reference compound]		5.71		46.9	45.9		5.46	2.55 (2.4-2.9, n = 4)	0.0612	2.8	0.004	0.0746	7.66	pIC50 (human ACC1 [3]; individual measurements, read-out: ACC 1 IC50): 7.37
Cc1ccc(-c2ccc(Cl)cc2)cc1C1=C(O)[C@]2(CC[C@H](C(F)(F)F)CC2)NC1=O [V.2-a, (5s,8s)-3-(4′-Chloro-4-methylbiphenyl-3-yl)-4-hydroxy-8-(trifluoromethyl)-1-azaspiro[4.5]dec-3-en-2-one, reference compound]		5.91 and 6.03		9.8 ± 1.4	11.2 and 8.4			2.38 (2.0-2.7, n = 4)		2.23			7.46	Kd at 0.25 μmol/liter ([4]; human, pH 7.4): 3070 nM; pIC50 (KM12; Homo sapiens, KM12, 96 h; read-out: KM12 IC50): 7.43; fu (mouse) (plasma proteins): 2.41%; pIC50 (H460; Homo sapiens, NCI-H460, 96 h; read-out: H460 IC50): 7.24; pIC50 (PC3; Homo sapiens, PC-3, 96 h; read-out: PC3 IC50): 7.42
Cc1ccc(-c2ccc(Cl)cc2)cc1C1=C(O)C2(CCCCC2)NC1=O [V.2-b, 3-(4′-Chloro-4-methylbiphenyl-3-yl)-4-hydroxy-1-azaspiro[4.5]dec-3-en-2-one, reference compound]		5.62 and 5.56	7.39	12.8 ± 1.3	11.5 and 14.1	6.68 and 6.71	5.49	2.05 (1.9-2.2, n = 2)	0.0071	2.77	0.0036	0.0281		
